Results as given in US11214803B2, “Modulators of YAP1 expression” (Ionis Pharmaceuticals, Inc., priority 2019, dated 2022).
Strand notation (5' to 3'): a small letter for the sugar, then the base; units joined by * are phosphorothioate-linked, units joined directly phosphodiester-linked; [ ] holds rarer units or linkages, { } end groups; capitals alone tell only the bases. k = constrained ethyl (cEt); [5mC] = 5-methylcytosine; d = 2'-deoxy (DNA)

test system: Yap1 mRNA; assay: Antisense inhibition of human Yap1 in A-431 cells by cEt gapmers, single dose (Example 1, RTS4814); format: cell-based; settings: A-431 cells, 5,000 cells per well, free uptake, 2,000 nM modified oligonucleotide, approx. 48 hours, RTS4814, normalized to RIBOGREEN; Table 3
Method: Modified oligonucleotides were designed to target a Yap1 nucleic acid and were tested for their effect on Yap1 mRNA level in vitro. The modified oligonucleotides were tested in a series of experiments that had similar culture conditions. Cultured A-431 cells at a density of 5,000 cells per well were treated using free uptake with 2,000 nM of modified oligonucleotide. After a treatment period of approximately 48 hours, RNA was isolated from the cells and Yap1 mRNA levels were measured by quantitative real-time RTPCR. Human primer probe set RTS4814 (forward sequence […], designated herein as SEQ ID NO.: 11; reverse sequence […], designated herein as SEQ ID NO.: 12; probe sequence […], designated herein as SEQ ID NO.: 13) was used to measure mRNA levels. Yap1 mRNA levels were normalized to total RNA content, as measured by RIBOGREEN®. Results are presented in the tables below as percent control of the amount of Yap1 mRNA relative to untreated control cells (% UTC). The modified oligonucleotides with percent control values marked with an asterisk (*) target the amplicon region of the primer probe set. Additional assays may be used to measure the potency and efficacy of the modified oligonucleotides targeting the amplicon region.
The newly designed modified oligonucleotides in the Tables below were designed as 3-10-3 cEt gapmers. The gapmers are 16 nucleosides in length, wherein the central gap segment comprises of ten 2′-deoxynucleosides and is flanked by wing segments on the 5′ direction and the 3′ direction comprising three nucleosides each. Each nucleoside in the 5′ wing segment and each nucleoside in the 3′ wing segment has a cEt sugar modification. The internucleoside linkages throughout each gapmer are phosphorothioate (P═S) linkages. All cytosine residues throughout each gapmer are 5-methylcytosines.
“Start site” indicates the 5′-most nucleoside to which the gapmer is targeted in the human gene sequence. “Stop site” indicates the 3′-most nucleoside to which the gapmer is targeted human gene sequence. […] Activity of the modified oligonucleotide may be defined in a different experiment.

Row | Substance | YAP1 (% UTC)
1 | 715582 (kG*kT*k[5mC]*dA*dA*dG*d[5mC]*d[5mC]*dT*dG*dT*d[5mC]*dT*kG*kG*kA; antisense) [Compound 715582] | 33
2 | 715414 (kA*kA*k[5mC]*dA*dT*dG*d[5mC]*dT*dG*dT*dG*dG*dA*kG*kT*k[5mC]; antisense) [Compound 715414] | 31
3 | 715474 (antisense k[5mC]*kT*kT*dT*d[5mC]*dT*dT*dT*dA*dT*d[5mC]*dT*dA*kG*k[5mC]*kT) [Compound 715474] | 78
4 | 715498 (antisense kT*kG*kA*dA*d[5mC]*d[5mC]*d[5mC]*dT*dT*dG*dA*dA*dA*kA*kT*kA) [Compound 715498] | 91
5 | 715477 (antisense kA*kG*kA*d[5mC]*dA*d[5mC]*dA*dT*dA*d[5mC]*dT*d[5mC]*dT*kA*kG*kT) [Compound 715477] | 61
6 | 715567 (kG*kG*kT*dA*dG*dG*dA*dT*dA*dA*dA*dT*dG*kA*kA*kT; antisense) [Compound 715567] | 99
7 | 715606 (antisense kA*k[5mC]*k[5mC]*dA*dT*dA*dG*d[5mC]*dA*d[5mC]*dA*dG*dA*kA*kT*kT) [Compound 715606] | 88
8 | 715522 (kA*k[5mC]*kT*d[5mC]*dT*dT*d[5mC]*dT*dT*dT*d[5mC]*d[5mC]*dA*k[5mC]*kT*k[5mC]; antisense) [Compound 715522] | 87
9 | 715579 (k[5mC]*kT*kG*dT*d[5mC]*dT*dG*dG*dA*dA*dT*dA*d[5mC]*kA*k[5mC]*kA; antisense) [Compound 715579] | 100
10 | 715630 (antisense kA*kA*kG*dA*dG*d[5mC]*d[5mC]*dT*dA*d[5mC]*d[5mC]*dT*dG*kA*k[5mC]*kA) [Compound 715630] | 94
11 | 715555 (kG*kT*kT*dA*dT*dT*d[5mC]*dA*dG*d[5mC]*dA*dG*d[5mC]*kT*kT*kA; antisense) [Compound 715555] | 21
12 | 715627 (antisense k[5mC]*kT*kA*d[5mC]*d[5mC]*dT*dG*dA*d[5mC]*dA*dT*dT*dT*kT*kG*kG) [Compound 715627] | 88
13 | 715540 (kT*kG*kA*dA*dG*dA*dA*d[5mC]*dT*dA*dT*dT*dT*k[5mC]*k[5mC]*kT; antisense) [Compound 715540] | 82

same assay, conditions: Table 1; A-431 cells, free uptake, 2,000 nM, approximately 48 hours, RTS4814; Yap1 mRNA relative to untreated control cells

Row | Substance | YAP1 (% UTC)
14 | 715439 (antisense kG*kG*kT*dT*d[5mC]*dA*dT*dG*dG*d[5mC]*dA*dA*dA*kA*k[5mC]*kG) [Compound 715439] | 99
15 | 715601 (antisense kA*kG*kA*dA*dT*dT*d[5mC]*d[5mC]*d[5mC]*dA*dA*dG*d[5mC]*kT*kA*k[5mC]) [Compound 715601] | 106
16 | 715571 (kA*kA*kA*dA*dT*d[5mC]*d[5mC]*dT*dG*d[5mC]*d[5mC]*dA*dA*k[5mC]*kA*kT; antisense) [Compound 715571] | 127
17 | 715613 (antisense kA*kT*kT*dA*d[5mC]*dT*dT*dT*dA*dA*dG*d[5mC]*d[5mC]*kA*k[5mC]*kA) [Compound 715613] | 85
18 | 715550 (kA*kG*kG*dA*dA*dG*dT*dT*dG*dT*dT*dG*dA*k[5mC]*k[5mC]*kA; antisense) [Compound 715550] | 70
19 | 715418 (kA*kG*kT*dG*dT*d[5mC]*d[5mC]*d[5mC]*dA*dG*dG*dA*dG*kA*kA*kA; antisense) [Compound 715418] | 126
20 | 715427 (k[5mC]*k[5mC]*kA*dT*d[5mC]*d[5mC]*dA*dT*d[5mC]*dA*dG*dG*dA*kA*kG*kA; antisense) [Compound 715427] | 90
21 | 715493 (antisense kG*kT*kG*d[5mC]*dT*dA*dG*d[5mC]*dT*dG*dG*dT*dG*k[5mC]*k[5mC]*kA) [Compound 715493] | 62
22 | 715505 (antisense kA*kT*kT*dG*dG*dT*dT*dT*dA*dT*dT*dG*dT*kA*kA*kA) [Compound 715505] | 84
23 | 715451 (antisense k[5mC]*kA*kT*dT*dG*dT*dT*d[5mC]*dT*d[5mC]*dA*dA*dT*kT*k[5mC]*k[5mC]) [Compound 715451] | 75
24 | 715526 (kA*k[5mC]*kT*dT*dA*d[5mC]*dT*dT*dT*dA*dA*dG*dA*kA*kG*kT; antisense) [Compound 715526] | 112
25 | 715424 (kT*kG*k[5mC]*d[5mC]*dA*dT*dG*dT*dT*dG*dT*dT*dG*kT*k[5mC]*kT; antisense) [Compound 715424] | 58
26 | 715472 (antisense kT*kT*kT*dA*dT*d[5mC]*dT*dA*dG*d[5mC]*dT*dT*dG*kG*kT*kG) [Compound 715472] | 52
27 | 715454 (antisense kA*kT*kA*dG*dG*dT*dG*d[5mC]*d[5mC]*dA*d[5mC]*dT*dG*kT*kT*kA) [Compound 715454] | 78
28 | 715469 (antisense kT*kA*kG*d[5mC]*dT*dT*dG*dG*dT*dG*dG*d[5mC]*dA*kG*k[5mC]*k[5mC]) [Compound 715469] | 94
29 | 715592 (kT*kT*k[5mC]*dT*dT*dT*dG*dG*d[5mC]*dA*dG*dA*dG*kA*kT*kA; antisense) [Compound 715592] | 89

same assay, conditions: Table 2; A-431 cells, free uptake, 2,000 nM, approximately 48 hours, RTS4814; Yap1 mRNA relative to untreated control cells

Row | Substance | YAP1 (% UTC)
30 | 715461 (antisense kT*k[5mC]*kA*dT*d[5mC]*dT*d[5mC]*dG*dA*dG*dA*dG*dT*kG*kA*kT) [Compound 715461] | 153
31 | 715554 (kT*kA*kT*dT*d[5mC]*dA*dG*d[5mC]*dA*dG*d[5mC]*dT*dT*kA*kT*kA; antisense) [Compound 715554] | 93
32 | 715482 (antisense k[5mC]*kT*kT*dT*dG*dG*dA*dA*dA*d[5mC]*d[5mC]*dA*dT*kT*kA*kT) [Compound 715482] | 58
33 | 715404 (kA*kA*kG*dA*dA*dG*dG*dA*dG*dT*d[5mC]*dG*dG*kG*k[5mC]*kA; antisense) [Compound 715404] | 64
34 | 715467 (antisense k[5mC]*kA*kT*d[5mC]*dT*d[5mC]*d[5mC]*dT*dT*d[5mC]*d[5mC]*dA*dG*kT*kG*kT) [Compound 715467] | 77
35 | 715581 (kA*kA*kG*d[5mC]*d[5mC]*dT*dG*dT*d[5mC]*dT*dG*dG*dA*kA*kT*kA; antisense) [Compound 715581] | 106
36 | 715500 (antisense kA*kA*kG*d[5mC]*d[5mC]*dT*dT*dA*dG*dA*dG*dT*d[5mC]*kA*kA*kT) [Compound 715500] | 30
37 | 715473 (antisense kT*k[5mC]*kT*dT*dT*dA*dT*d[5mC]*dT*dA*dG*d[5mC]*dT*kT*kG*kG) [Compound 715473] | 32
38 | 715617 (antisense kA*kA*kG*dA*d[5mC]*dG*dG*dA*dT*dA*dA*dA*dA*kA*kT*kT) [Compound 715617] | 98
39 | 715422 (kA*kT*kG*dT*dT*dG*dT*dT*dG*dT*d[5mC]*dT*dG*kA*kT*k[5mC]; antisense) [Compound 715422] | 57
40 | 715587 (kT*kG*kA*dA*dA*dA*dG*dG*dT*d[5mC]*dT*dG*dG*kA*kA*k[5mC]; antisense) [Compound 715587] | 79
41 | 715470 (antisense kT*k[5mC]*kT*dA*dG*d[5mC]*dT*dT*dG*dG*dT*dG*dG*k[5mC]*kA*kG) [Compound 715470] | 83
